# How the values were obtained:
# [1] = tested on: HepG2 cells; experiment: MTT cell viability assay; type: cell-based, human; settings: 24 h
# Procedure: HepG2 and HepG2/CDDP cells were plated in 96-well plates at a density of 5000 cells in 200 μl medium per well and incubated overnight. The cells were treated with […] and/or CDDP for 24 h, 48 or 72 h. The cell viability of HepG2 and HepG2/CDDP cells was measured by MTT assay as described previously.
# [2] = tested on: HepG2/CDDP cells; experiment: MTT cell viability assay; type: cell-based, human
# Procedure: Human hepatocellular carcinoma HepG2 cells were purchased from Cell Bank of Shanghai Institute of Biochemistry and Cell Biology, Chinese Academy of Sciences (Shanghai, China). mtrDNA sequence analysis was done by the cell bank to confirm the species and cells were tested free from mycoplasma. CDDP-selected drug-resistant HepG2/CDDP cells were derived from HepG2 cells by utilizing serial passage in the presence of increasing CDDP concentrations. Briefly, cells were treated with CDDP (1 μM) for 72 h. The media and dead cells were removed, and cells were allowed to recover for a further 72 h and then were treated with a higher concentration of CDDP. This development period was carried out for approximately 6 months, and finally, we obtained the HepG2/CDDP cells. HepG2/CDDP cells were then continuously maintained in the presence of 20 μM CDDP for a further 3 months to maintain stability. All cells were cultured in DMEM media containing 10% fetal bovine serum and incubated with 100 U/ml penicillin and 100 μg/ml streptomycin (Thermo) at 37 °C under an atmosphere of 95% air and 5% CO2.
# HepG2 and HepG2/CDDP cells were plated in 96-well plates at a density of 5000 cells in 200 μl medium per well and incubated overnight. The cells were treated with calyxin Y and/or CDDP for 24 h, 48 or 72 h. The cell viability of HepG2 and HepG2/CDDP cells was measured by MTT assay as described previously.
# [3] = tested on: HepG2 cells; experiment: Annexin V/7-AAD staining assay (flow cytometry); type: cell-based, human; settings: CDDP 10 µM with or without calyxin Y 20 µM, 24 h
# Procedure: HepG2 and HepG2/CDDP cells were plated on 6-well plates and incubated overnight. Next, the cells were treated with […] and/or CDDP for 24 h. Cells in 200 μl of binding buffer were stained with 5 μl of Annexin V-Alexa Fluor 647 ([…] Biotech Co., Ltd., China) and 5 μl of 7-AAD at room temperature for 15 min. The cells were then analyzed by flow cytometry with a BD Accuri C6 flow cytometer (Becton & Dickinson Company, Franklin Lakes, NJ, USA). The cells undergoing apoptosis are Annexin V positive.
# [4] = Hematological parameters of nude mice bearing HepG2/CDDP xenograft; type: in vivo, BALB/c nu/nu mice; settings: calyxin Y 20 mg/kg i.p. every other day and/or CDDP 4 mg/kg i.p. once per week, 19 days; mean ± S.D., n = 3
# Procedure: (§1) All animal procedures were performed according to comply with the ARRIVE guidelines, the U.K. Animals (Scientific Procedures) Act, 1986 and associated guidelines. The protocol was approved by the Institutional Animal Care and Use Committee at China Pharmaceutical University. Four-week-old BALB/c nu/nu mice (18-22 g) purchased from Shanghai Laboratory Animal Center of Chinese Academy of Sciences (Shanghai, China) were used for in vivo experiments. Animals were housed at a constant room temperature with a 12 h:12 h light/dark cycle and were provided a standard rodent diet and water. HepG2/CDDP cells were harvested and injected subcutaneously into the right flank (1 × 10^7 cells in 150 μl of cold PBS). […] (1) control group, mice were injected intraperitoneally (i.p.) with 10% DMSO + 90% normal saline (n = 6); (2) […] group: mice were injected i.p. with 20 mg/kg […] every other day (n = 6); (3) CDDP group: mice were injected i.p. with 4 mg/kg CDDP once per week (n = 6); (4) […] + CDDP group: mice were injected i.p. with 20 mg/kg […] every other day and 4 mg/kg CDDP once per week (n = 6). The tumor volume was determined by measuring length (l) and width (w) and calculating volume (V = 0.5 × l × w^2) at the indicated time points. At the end of treatment, the animals were sacrificed, and the tumors were removed and weighed for use in histology and protein expression studies. Using a standard saphenous vein blood collection technique, blood was drawn for hematologic and serum biochemistry analyses.
# [5] = Hematological biochemical parameters of nude mice bearing HepG2/CDDP xenograft; type: in vivo, BALB/c nu/nu mice; settings: calyxin Y 20 mg/kg i.p. every other day and/or CDDP 4 mg/kg i.p. once per week, 19 days; mean ± S.D., n = 3
# Procedure: as §1
# [6] = tested on: HepG2/CDDP cells; experiment: Western blot of cleaved caspase-3/7/PARP; type: cell-based, human; settings: CDDP 10 µM with or without calyxin Y 20 µM, 24 h
# Excerpt: The procedures for Western blotting were described previously.
# [7] = tested on: eEF2K in HepG2 cells; settings: calyxin Y 5, 10, 20 µM, 24 h
# Procedure: (§2) HepG2 and HepG2/CDDP cells were lysed in western blotting lysis buffer and centrifuged at 12000 g for 10 min. The procedures for Western blotting were described previously.
# [8] = tested on: eEF2K in HepG2/CDDP cells; settings: calyxin Y 5, 10, 20 µM, 24 h
# Procedure: as §2
# [9] = tested on: eEF2K mRNA in HepG2 cells; settings: calyxin Y 5, 10, 20 µM, 24 h
# Procedure: (§3) Total RNA samples from HepG2 and HepG2/CDDP cells were extracted using RNAiso Plus reagent following the manufacturer’s protocols. RNA (1 μg) was reverse-transcribed using a ReverTra Ace qPCR RT-Kit (Toyobo Life Science, Osaka, Japan) in a MyCycler PCR system (BioRad Laboratories, Hercules, CA). SYBR Green PCR Master Mix was purchased from Toyobo Life Science. The 2^−ΔΔCT cycle threshold method was used for the calculation of relative differences in mRNA abundance with a LightCycler 480 qPCR System (Roche Molecular Biochemicals, Mannheim, Germany). Data were normalized to the expression of β-Actin. The results of qRT-PCR were expressed as fold-changes. The normalized value of the target mRNA of the control group is arbitrarily presented as 100. The pairs of primer for PCR were listed below: • eEF2K: (sense) 5′-[…]-3′; • eEF2K: (antisense) 5′-[…]-3′. • β-Actin: (sense) 5′-[…] CAATG-3′; • β-Actin: (antisense) 5′-[…]-3′.
# [10] = tested on: eEF2K mRNA in HepG2/CDDP cells; settings: calyxin Y 5, 10, 20 µM, 24 h
# Procedure: as §3
Molecule,Hematocrit [4] [%],Hemoglobin [4] [g/L],Lymphocytes [4],Mean corpuscular hemoglobin [4] [pg],Mean corpuscular volume [4] [fL],Platelet counts [4],Red blood cells [4],White blood cells [4],Alanine aminotransferase [5] [U/L],Alkaline phosphatase [5] [U/L],Aspartate aminotransferase [5] [U/L],also measured
"[NH2][Pt]([NH2])([Cl])[Cl] [CDDP, cisplatin]",44.3 ± 2.8,126.3 ± 4.7,8.9 ± 1.9 10^9/L,13.4 ± 0.29,47.7 ± 3.5,562.1 ± 19.2 10^9/L,9.6 ± 0.67 10^12/L,9.9 ± 0.39 10^9/L,40.2 ± 1.2,125.4 ± 0.91,158.5 ± 5.1,"IC50 ([1]; MTT): 16.7 µM; IC50 ([2]; HepG2/CDDP cells, 24 h, MTT): 95.4 µM; resistance index ([2]; HepG2/CDDP vs HepG2, IC50 at 24 h): ~6 fold; apoptosis (AV+ cells) [3]: 31%; cleavage of caspase-7, caspase-3 and PARP [6]: did not cause the cleavage"
Calyxin Y,44.1 ± 1.4,138.4 ± 7.0,18.5 ± 1.8 10^9/L,14.5 ± 0.13,47.3 ± 3.3,588.5 ± 80.5 10^9/L,11.0 ± 0.27 10^12/L,15.2 ± 2.2 10^9/L,37.5 ± 1.4,115.4 ± 2.7,129.3 ± 3.5,"cell viability ([1]; calyxin Y 10, 20, 30, 40 µM): concentration-dependent manner; cell viability ([2]; HepG2/CDDP cells, calyxin Y 10, 20, 30, 40 µM, 24 h): inhibited the viability of HepG2/CDDP cells as much as it did that of HepG2 cells in a concentration-dependent manner; eEF2K expression [7]: reduced eEF2K expression in a dose-dependent manner; eEF2K expression [8]: reduced eEF2K expression in a dose-dependent manner; eEF2K mRNA levels [9]: not significantly changed; eEF2K mRNA levels [10]: not significantly changed"

# From publication PMC5642580, “Calyxin Y sensitizes cisplatin-sensitive and resistant hepatocellular carcinoma cells to cisplatin through apoptotic and autophagic cell death via SCF βTrCP-mediated eEF2K degradation” (Oncotarget, 2017)
